Results as given in patent US20170114070A1, “INHIBITORS OF THE WNT SIGNALLING PATHWAYS” (Bayer Pharma Aktiengesellschaft, priority 2014, published 2017).
pIC50: −log10 of the molar value.

Tests used:
[1] = test system: constitutive active Wnt pathway (HCT116 TOPFlash); experiment: Cellular reporter assay, HCT116 Super TopFlash (constitutive active Wnt pathway); assay type: cell-based; conditions: Homo sapiens, HCT-116; HCT116 stably transfected with Super TopFlash vector; 36 hours incubation; luciferase expression
Description: In order to discover and characterize small molecules which inhibit the constitutive active colorectal cancer cell (CRC) Wnt pathway, a cellular reporter assay was employed. The corresponding assay cell was generated by transfection of the colorectal cancer cell line HCT116 (ATCC, #CCL-247) with the Super TopFlash vector (Morin, Science 275, 1997, 1787-1790; Molenaar et al., Cell 86 (3), 1996, 391-399). The HCT116 cell line is cultivated at 37° C. and 5% CO2 in DMEM/F-12 (Life Technologies, #11320-074), supplemented with 2 mM glutamine, 20 mM HEPES, 1.4 mM pyruvate, 0.15% Na-bicarbonate and 10% foetal bovine serum (GIBCO, #10270), this cancer cell line is pathophysiological relevant since it carries a deletion of position S45 in the β-catenin gene, leading to constitutive active Wnt signaling. Stable transfectants were generated by cotransfection with pcDNA3 and selection of stable transfected cells with 1 mg/ml G418.
(§1) In a parallel approach, HCT116 cells were cotransfected with the FOP control vector and pcDNA3. The FOP vector is identical to the TOP construct, but it contains instead of functional TCF elements a randomized, non-functional sequence. For this transfection a stable transfected cell line was generated as well.
(§2) In preparation of the assay, the two cell lines were plated 24 hours before at 10000 cells per well of a 384 micro titre plate (MTP) in 30 μL growth medium. Selective inhibitory activity for small molecules on the mutated Wnt pathway was determined after parallel incubation of both (TOP and FOP) HCT116 reporter cell lines with a compound dilution series from 50 μM to 15 nM in steps of 3.16-fold dilutions in CAFTY buffer (130 mM NaCl, 5 mM KCl, 20 mM HEPES, 1 mM MgCl2, 5 mM NaHCO3, pH 7.4) containing 2 mM Ca^2+ and 0.01% BSA. The compounds were thereby serially prediluted in 100% DMSO and thereafter in addition 50 fold into the CAFTY compound dilution buffer (described above). From this dilution 10 μL were added to the cells in 30 μL growth medium and incubated for 36 hours at 37° C. and 5% CO2. Thereafter luciferase assay buffer (1:1 mixture of luciferase substrate buffer (20 mM Tricine, 2.67 mM MgSO4, 0.1 mM EDTA, 4 mM DTT, 270 μM Coenzyme A, 470 μM Luciferin, 530 μM ATP, ph adjusted to pH 7.8 with a sufficient volume of 5M NaOH) and Triton buffer (30 mL Triton X-100, 115 mL glycerol, 308 mg Dithiothreitol, 4.45 g Na2HPO4.2H2O, 3.03 g TRIS HCl, ad 1 l H20, pH 7.8) was added as equal volume to the compound solution on the cells to determine luciferase expression as a measure of Wnt signaling activity in a luminometer.

[2] = test system: HCT116 FOPFlash (FOP control vector, non-functional TCF elements); experiment: Cellular control reporter assay, HCT116 FOP control vector; assay type: cell-based; conditions: Homo sapiens, HCT-116; HCT116 stably transfected with FOP control vector; 36 hours incubation; luciferase expression; dilution series from 50 μM
Description: as §1, §2

SMILES | pIC50 [1] | pIC50 [2]
O=C(CN1CCN(CC(F)F)CC1)Nc1cc(C(=O)Nc2ccc(-c3ccccc3)nn2)ccc1OC(F)(F)F [Example 5, 3-({[4-(2,2-difluoroethyl)piperazin-1-yl]acetyl}amino)-N-(6-phenylpyridazin-3-yl)-4-(trifluoromethoxy)benzamide] | 6.69 | ≤ 4.30
CN1CCN(CC(=O)Nc2cc(C(=O)Nc3ccc(-c4cncnc4)nn3)ccc2OC(F)(F)F)CC1 [Example 2, 3-{[(4-methylpiperazin-1-yl)acetyl]amino}-N-[6-(pyrimidin-5-yl)pyridazin-3-yl]-4-(trifluoromethoxy)benzamide] | 6.79 | ≤ 4.30
Nc1ncc(-c2ccc(NC(=O)c3ccc(OC(F)(F)F)c(NC(=O)CN4CCOCC4)c3)nn2)cn1 [Example 13, N-[6-(2-aminopyrimidin-5-yl)pyridazin-3-yl]-3-[(morpholin-4-ylacetyl)amino]-4-(trifluoromethoxy)benzamide] | 7.17 | ≤ 4.30
O=C(CN1CCOCC1)Nc1cc(C(=O)Nc2ccc(-c3cccnc3)nn2)ccc1OC(F)(F)F [Example 14, 3-[(morpholin-4-ylacetyl)amino]-N-[6-(pyridin-3-yl)pyridazin-3-yl]-4-(trifluoromethoxy)benzamide] | 7.27 | ≤ 4.30
CN1CCN(CC(=O)Nc2cc(C(=O)Nc3ncc(-c4ccccc4)cn3)ccc2OC(F)(F)F)CC1 [Example 19, 3-{[(4-methylpiperazin-1-yl)acetyl]amino}-N-(5-phenylpyrimidin-2-yl)-4-(trifluoromethoxy)benzamide] | 6.49 | ≤ 4.30
CN1CCN(CC(=O)Nc2cc(C(=O)Nc3ccc(-c4cnc(N)nc4)nn3)ccc2OC(F)(F)F)CC1 [Example 3, N-[6-(2-aminopyrimidin-5-yl)pyridazin-3-yl]-3-{[(4-methylpiperazin-1-yl)acetyl]amino}-4-(trifluoromethoxy)benzamide] | 7.00 | ≤ 4.30
Cc1cccc(F)c1-c1cnc(NC(=O)c2ccc(OC(F)(F)F)c(NC(=O)CN3CCN(C)CC3)c2)cn1 [Example 29, N-[5-(2-fluoro-6-methylphenyl)pyrazin-2-yl]-3-{[(4-methylpiperazin-1-yl)acetyl]amino}-4-(trifluoromethoxy)benzamide] | 4.78 | ≤ 4.30
O=C(CN1CCOCC1)Nc1cc(C(=O)Nc2cnc(-c3ccccc3)cn2)ccc1OC(F)(F)F [Example 10, 3-[(morpholin-4-ylacetyl)amino]-N-(5-phenylpyrazin-2-yl)-4-(trifluoromethoxy)benzamide] | 7.20 | ≤ 4.30
CN1CCN(CC(=O)Nc2cc(C(=O)Nc3cnc(-c4ccc(N)nc4)cn3)ccc2OC(F)(F)F)CC1 [Example 24, N-[5-(6-aminopyridin-3-yl)pyrazin-2-yl]-3-{[(4-methylpiperazin-1-yl)acetyl]amino}-4-(trifluoromethoxy)benzamide] | – | ≤ 4.30

Further lines, results first:

pIC50 [1] | pIC50 [2] | SMILES
6.08 | 5.02 | Nc1ncc(-c2cnc(NC(=O)c3ccc(OC(F)(F)F)c(NC(=O)CN4CCOCC4)c3)cn2)cn1 [Example 53, N-[5-(2-aminopyrimidin-5-yl)pyrazin-2-yl]-3-[(morpholin-4-ylacetyl)amino]-4-(trifluoromethoxy)benzamide]
6.65 | ≤ 4.30 | CN1CCN(CC(=O)Nc2cc(C(=O)Nc3cnc(-c4cnc(N)nc4)cn3)ccc2OC(F)(F)F)CC1 [Example 37, N-[5-(2-aminopyrimidin-5-yl)pyrazin-2-yl]-3-{[(4-methylpiperazin-1-yl)acetyl]amino}-4-(trifluoromethoxy)benzamide]
5.39 | ≤ 4.30 | CN1CCN(CC(=O)Nc2cc(C(=O)Nc3cnc(-c4cnc(N)cn4)cn3)ccc2OC(F)(F)F)CC1 [Example 60, N-(5′-amino-2,2′-bipyrazin-5-yl)-3-{[(4-methylpiperazin-1-yl)acetyl]amino}-4-(trifluoromethoxy)benzamide]
– | 5.51 | O=C(Nc1ccc([N+](=O)[O-])cc1Cl)c1cc(Cl)ccc1O [Ref., niclosamide, reference compound]
6.91 | ≤ 4.30 | O=C(CN1CCOCC1)Nc1cc(C(=O)Nc2cnc(-c3ccccc3)cn2)ccc1OC1CC1 [Example 38, 4-(cyclopropyloxy)-3-[(morpholin-4-ylacetyl)amino]-N-(5-phenylpyrazin-2-yl)benzamide]
6.65 | ≤ 4.30 | CN1CCN(CC(=O)Nc2cc(C(=O)Nc3cnc(-c4ccccc4F)cn3)ccc2OC(F)(F)F)CC1 [Example 41, N-[5-(2-fluorophenyl)pyrazin-2-yl]-3-{[(4-methylpiperazin-1-yl)acetyl]amino}-4-(trifluoromethoxy)benzamide]
5.87 | ≤ 4.30 | CN1CCN(CC(=O)Nc2cc(C(=O)Nc3cnc(-c4cnccn4)cn3)ccc2OC(F)(F)F)CC1 [Example 54, N-(2,2′-bipyrazin-5-yl)-3-{[(4-methylpiperazin-1-yl)acetyl]amino}-4-(trifluoromethoxy)benzamide]
7.09 | ≤ 4.30 | Cc1ccncc1-c1cnc(NC(=O)c2ccc(OC(F)(F)F)c(NC(=O)CN3CCN(C)CC3)c2)cn1 [Example 30, 3-{[(4-methylpiperazin-1-yl)acetyl]amino}-N-[5-(4-methylpyridin-3-yl)pyrazin-2-yl]-4-(trifluoromethoxy)benzamide]
4.90 | ≤ 4.30 | O=C(CN1CCOCC1)Nc1cc(C(=O)Nc2ncc(-c3ccccc3)cn2)ccc1OC1CC1 [Example 34, 4-(cyclopropyloxy)-3-[(morpholin-4-ylacetyl)amino]-N-(5-phenylpyrimidin-2-yl)benzamide]
4.78 | ≤ 4.30 | Cc1ccncc1-c1cnc(NC(=O)c2ccc(OC(F)(F)F)c(NC(=O)CN3CCOCC3)c2)cn1 [Example 45, N-[5-(4-methylpyridin-3-yl)pyrazin-2-yl]-3-[(morpholin-4-ylacetyl)amino]-4-(trifluoromethoxy)benzamide]
5.54 | ≤ 4.30 | Cc1cccc(F)c1-c1cnc(NC(=O)c2ccc(OC(F)(F)F)c(NC(=O)CN3CCOCC3)c2)cn1 [Example 58, N-[5-(2-fluoro-6-methylphenyl)pyrazin-2-yl]-3-[(morpholin-4-ylacetyl)amino]-4-(trifluoromethoxy)benzamide]
4.77 | ≤ 4.30 | Nc1ccc(-c2cnc(NC(=O)c3ccc(OC(F)(F)F)c(NC(=O)CN4CCOCC4)c3)cn2)cn1 [Example 46, N-[5-(6-aminopyridin-3-yl)pyrazin-2-yl]-3-[(morpholin-4-ylacetyl)amino]-4-(trifluoromethoxy)benzamide]
6.65 | 4.60 | Cc1ccccc1-c1cnc(NC(=O)c2ccc(OC(F)(F)F)c(NC(=O)CN3CCOCC3)c2)cn1 [Example 39, N-[5-(2-methylphenyl)pyrazin-2-yl]-3-[(morpholin-4-ylacetyl)amino]-4-(trifluoromethoxy)benzamide]
4.76 | 4.58 | Nc1cc(-c2cnc(NC(=O)c3ccc(OC(F)(F)F)c(NC(=O)CN4CCOCC4)c3)cn2)ccn1 [Example 55, N-[5-(2-aminopyridin-4-yl)pyrazin-2-yl]-3-[(morpholin-4-ylacetyl)amino]-4-(trifluoromethoxy)benzamide]
